{"source": "ChEMBL document CHEMBL3885861", "about": "“Open TG-GATES”", "organism": "Rattus norvegicus", "test": "Open TG-GATES - Regimen: Daily Repeat", "assay_type": "toxicity, organism-based, Sprague-Dawley", "set-up": "regimen Daily Repeat, gender Male, age 6 weeks", "conditions": "in vivo, po, 1000 mg/kg, […], route gavage, dose level High; for KIDNEY_L / KIDNEY_R / KIDNEY_TOTAL: tissue Kidney; for LIVER: tissue Liver; for A/G / ALP / ALT / AST / BUN / CRE / Ca / Cl / DBIL / GLC / IP / K / LDH / Na / PL / RALB / TBIL / TC / TG / TP / gamma-GTP: tissue Plasma", "data": [{"smiles": "C[C@H]1O[C@H](O[C@H]2[C@H](O)[C@@H](O)[C@@H](O[C@H]3[C@H](O)[C@@H](O)C(O)O[C@@H]3CO)O[C@@H]2CO)[C@H](O)[C@@H](O)[C@@H]1N[C@H]1C=C(CO)[C@@H](O)[C@H](O)[C@H]1O", "note": "(stereo partly specified) [ACARBOSE]", "values": [{"measurement": "Lym", "setting": "tissue Blood, time 28 day", "value": 83.6, "unit": "%"}, {"measurement": "MCH", "setting": "tissue Blood, time 28 day", "value": 19.6, "unit": "pg"}, {"measurement": "MCHC", "setting": "tissue Blood, time 28 day", "value": 34.4, "unit": "%"}, {"measurement": "MCV", "setting": "tissue Blood, time 28 day", "value": 57, "unit": "fL"}, {"measurement": "Mono", "setting": "tissue Blood, time 28 day", "value": 2, "unit": "%"}, {"measurement": "Neu", "setting": "tissue Blood, time 28 day", "value": 12.6, "unit": "%"}, {"measurement": "PT", "setting": "tissue Blood, time 28 day", "value": 13.3, "unit": "s"}, {"measurement": "Plat", "setting": "tissue Blood, time 28 day", "value": 102.8, "unit": "x10_4/uL"}, {"measurement": "RBC", "setting": "tissue Blood, time 28 day", "value": 829, "unit": "x10_4/ul"}, {"measurement": "Ret", "setting": "tissue Blood, time 28 day", "value": 2.2, "unit": "%"}, {"measurement": "WBC", "setting": "tissue Blood, time 28 day", "value": 110.1, "unit": "x10_2/uL"}, {"measurement": "KIDNEY_L", "setting": "time 7 day", "value": 1.1, "unit": "g"}, {"measurement": "KIDNEY_R", "setting": "time 7 day", "value": 1.1, "unit": "g"}, {"measurement": "KIDNEY_TOTAL", "setting": "time 7 day", "value": 2.2, "unit": "g"}, {"measurement": "KIDNEY_L", "setting": "time 14 day", "value": 1.2, "unit": "g"}, {"measurement": "KIDNEY_R", "setting": "time 14 day", "value": 1.2, "unit": "g"}, {"measurement": "KIDNEY_TOTAL", "setting": "time 14 day", "value": 2.4, "unit": "g"}, {"measurement": "KIDNEY_L", "setting": "time 28 day", "value": 1.4, "unit": "g"}, {"measurement": "KIDNEY_R", "setting": "time 28 day", "value": 1.3, "unit": "g"}, {"measurement": "KIDNEY_TOTAL", "setting": "time 28 day", "value": 2.7, "unit": "g"}, {"measurement": "LIVER", "setting": "time 7 day", "value": 13.9, "unit": "g"}, {"measurement": "LIVER", "setting": "time 14 day", "value": 13.4, "unit": "g"}, {"measurement": "LIVER", "setting": "time 28 day", "value": 16.6, "unit": "g"}, {"measurement": "A/G", "setting": "time 7 day", "value": 0.9}, {"measurement": "ALP", "setting": "time 7 day", "value": 1346.8, "unit": "IU/L"}, {"measurement": "ALT", "setting": "time 7 day", "value": 41.2, "unit": "IU/L"}, {"measurement": "AST", "setting": "time 7 day", "value": 66, "unit": "IU/L"}, {"measurement": "BUN", "setting": "time 7 day", "value": 16.6, "unit": "mg/dL"}, {"measurement": "CRE", "setting": "time 7 day", "value": 0.2, "unit": "mg/dL"}, {"measurement": "Ca", "setting": "time 7 day", "value": 10.9, "unit": "mg/dL"}, {"measurement": "Cl", "setting": "time 7 day", "value": 103.2, "unit": "meq/L"}, {"measurement": "DBIL", "setting": "time 7 day", "value": 0.012, "unit": "mg/dL"}, {"measurement": "GLC", "setting": "time 7 day", "value": 182.4, "unit": "mg/dL"}, {"measurement": "IP", "setting": "time 7 day", "value": 7.3, "unit": "mg/dL"}, {"measurement": "K", "setting": "time 7 day", "value": 3.9, "unit": "meq/L"}, {"measurement": "LDH", "setting": "time 7 day", "value": 88.4, "unit": "IU/L"}, {"measurement": "Na", "setting": "time 7 day", "value": 141.4, "unit": "meq/L"}, {"measurement": "PL", "setting": "time 7 day", "value": 140.2, "unit": "mg/dL"}, {"measurement": "RALB", "setting": "time 7 day", "value": 2.6, "unit": "g/dL"}, {"measurement": "TBIL", "setting": "time 7 day", "value": 0.048, "unit": "mg/dL"}, {"measurement": "TC", "setting": "time 7 day", "value": 66.4, "unit": "mg/dL"}, {"measurement": "TG", "setting": "time 7 day", "value": 134.8, "unit": "mg/dL"}, {"measurement": "TP", "setting": "time 7 day", "value": 5.7, "unit": "g/dL"}, {"measurement": "gamma-GTP", "setting": "time 7 day", "value": 1, "unit": "IU/L"}, {"measurement": "A/G", "setting": "time 14 day", "value": 0.8}, {"measurement": "ALP", "setting": "time 14 day", "value": 1516, "unit": "IU/L"}, {"measurement": "ALT", "setting": "time 14 day", "value": 40, "unit": "IU/L"}, {"measurement": "AST", "setting": "time 14 day", "value": 69.8, "unit": "IU/L"}, {"measurement": "BUN", "setting": "time 14 day", "value": 17.4, "unit": "mg/dL"}, {"measurement": "CRE", "setting": "time 14 day", "value": 0.3, "unit": "mg/dL"}, {"measurement": "Ca", "setting": "time 14 day", "value": 10.7, "unit": "mg/dL"}, {"measurement": "Cl", "setting": "time 14 day", "value": 105.2, "unit": "meq/L"}, {"measurement": "DBIL", "setting": "time 14 day", "value": 0.006, "unit": "mg/dL"}, {"measurement": "GLC", "setting": "time 14 day", "value": 184, "unit": "mg/dL"}, {"measurement": "IP", "setting": "time 14 day", "value": 7, "unit": "mg/dL"}, {"measurement": "K", "setting": "time 14 day", "value": 4.1, "unit": "meq/L"}, {"measurement": "LDH", "setting": "time 14 day", "value": 88.8, "unit": "IU/L"}, {"measurement": "Na", "setting": "time 14 day", "value": 142.2, "unit": "meq/L"}, {"measurement": "PL", "setting": "time 14 day", "value": 138.2, "unit": "mg/dL"}, {"measurement": "RALB", "setting": "time 14 day", "value": 2.7, "unit": "g/dL"}, {"measurement": "TBIL", "setting": "time 14 day", "value": 0.046, "unit": "mg/dL"}, {"measurement": "TC", "setting": "time 14 day", "value": 69.8, "unit": "mg/dL"}, {"measurement": "TG", "setting": "time 14 day", "value": 89, "unit": "mg/dL"}, {"measurement": "TP", "setting": "time 14 day", "value": 5.8, "unit": "g/dL"}, {"measurement": "gamma-GTP", "setting": "time 14 day", "value": 1, "unit": "IU/L"}, {"measurement": "A/G", "setting": "time 28 day", "value": 0.8}, {"measurement": "ALP", "setting": "time 28 day", "value": 1153.4, "unit": "IU/L"}, {"measurement": "ALT", "setting": "time 28 day", "value": 35.4, "unit": "IU/L"}, {"measurement": "AST", "setting": "time 28 day", "value": 63.6, "unit": "IU/L"}, {"measurement": "BUN", "setting": "time 28 day", "value": 18.4, "unit": "mg/dL"}, {"measurement": "CRE", "setting": "time 28 day", "value": 0.3, "unit": "mg/dL"}, {"measurement": "Ca", "setting": "time 28 day", "value": 10.8, "unit": "mg/dL"}, {"measurement": "Cl", "setting": "time 28 day", "value": 104.6, "unit": "meq/L"}, {"measurement": "DBIL", "setting": "time 28 day", "value": 0.014, "unit": "mg/dL"}, {"measurement": "GLC", "setting": "time 28 day", "value": 180.2, "unit": "mg/dL"}, {"measurement": "IP", "setting": "time 28 day", "value": 6.5, "unit": "mg/dL"}, {"measurement": "K", "setting": "time 28 day", "value": 4, "unit": "meq/L"}, {"measurement": "LDH", "setting": "time 28 day", "value": 72.6, "unit": "IU/L"}, {"measurement": "Na", "setting": "time 28 day", "value": 142, "unit": "meq/L"}, {"measurement": "PL", "setting": "time 28 day", "value": 151.8, "unit": "mg/dL"}, {"measurement": "RALB", "setting": "time 28 day", "value": 2.8, "unit": "g/dL"}, {"measurement": "TBIL", "setting": "time 28 day", "value": 0.058, "unit": "mg/dL"}, {"measurement": "TC", "setting": "time 28 day", "value": 73.4, "unit": "mg/dL"}, {"measurement": "TG", "setting": "time 28 day", "value": 166.2, "unit": "mg/dL"}, {"measurement": "TP", "setting": "time 28 day", "value": 6.2, "unit": "g/dL"}, {"measurement": "gamma-GTP", "setting": "time 28 day", "value": 1.2, "unit": "IU/L"}]}]}
